# Measurements taken from patent US20210186834A1, “TAHITI VANILLA EXTRACT AND 4-[(1E,3S)-3-ETHENYL-3,7-DIMETHYLOCTA-1,6-DIENYL]PHENOL FOR COMBATTING CUTANEOUS AGEING” (PIERRE FABRE DERMO-COSMETIQUE, priority 2018, published 2021).
# Experiments:
# Type in all cases: cell-based
# protein P16 = experiment: Expression of P16 by immunofluorescence after acute UVA stress on normal human fibroblasts; conditions: bakuchiol 0.5 μg/mL, added 1 h before UVA 60 J/cm^2, sampled 24 h after irradiation, N=3 donors; P=NS versus the non-treated group
# Method: The biological model used for this study consists of normal human dermis fibroblasts obtained from healthy donors. The fibroblasts are cultured in a standard culture medium for 36 hours, the products to test (vehicle (DMSO), bakuchiol (0.5 μg/ml), vanilla extract (0.05%, p/v) and the combination thereof (same concentrations)) are added to the culture medium one hour before the UVA radiation test. This test consists in a photo-ageing stress: the fibroblasts are irradiated by UVA at a dose of 60 J/cm^2 (Waldmann UVA lamp). A condition without irradiation is also realised. The fibroblasts are next sampled 24 h after irradiation for immunofluorescence analyses. All the experimental conditions are realised with N=3 donors. The fluorescence was quantified using Nikon NIS Element software in order to obtain an average fluorescence per cell and per condition. The treatment of human fibroblasts with acute UVA stress induces a significant increase in the expression of P16, going from 500 AU to almost 1000 AU, P<0.001, versus the non-stimulated condition. […] The statistics are produced using a one way variance analysis (one-way ANOVA) followed by a Dunnett test.
# IL8 = experiment: Expression of IL8 by immunofluorescence after acute UVA stress on normal human fibroblasts; conditions: bakuchiol 0.5 μg/ml, UVA 60 J/cm^2, 24 h after irradiation; P<0.05 versus non-treated conditions
# Method: (§1) The fibroblasts are cultured in a standard culture medium for 36 hours, the products to test (vehicle (DMSO), bakuchiol (0.5 μg/ml), vanilla extract (0.05%, p/v) and the combination thereof (same concentrations)) are added to the culture medium one hour before the UVA radiation test. This test consists in a photo-ageing stress: the fibroblasts are irradiated by UVA at a dose of 60 J/cm^2 (Waldmann UVA lamp). A condition without irradiation is also realised. The fibroblasts are next sampled 24 h after irradiation for immunofluorescence analyses. All the experimental conditions are realised with N=3 donors. The fluorescence was quantified using Nikon NIS Element software in order to obtain an average fluorescence per cell and per condition. The protocol used is rigorously the same as that described in example 1. The products tested are the same, the concentrations also. The expression of IL8 is then quantified by immunofluorescence. The treatment of human fibroblasts with acute UVA stress induces a significant increase in the expression of IL8, going from 100% to 5300% (P<0.05) compared to the condition without irradiation. In addition, it appears that the treatment by UVA induces important morphological changes in the fibroblasts, going from a star-shaped model to a spindle-shaped model.
# normal human fibroblasts = experiment: Morphological changes of fibroblasts induced by exposure to UVA; conditions: bakuchiol 0.5 μg/ml, vanilla extract 0.05% (p/v), combination at the same concentrations; UVA 60 J/cm^2
# Method: as §1
structure (smiles),measurement,setting,value
"C=C[C@@](C)(/C=C/c1ccc(O)cc1)CCC=C(C)C [bakuchiol, 4-[(1E,3S)-3-ethenyl-3,7-dimethylocta-1,6-dienyl]phenol]",reduction of the expression of P16 following irradiation,protein P16,−44.4%
same,decrease of the expression of IL8 following exposure to UVA,IL8,88.3%
same,effect on morphological changes (star-shaped to spindle-shaped) induced by exposure to UVA,normal human fibroblasts,prevention of the morphological changes
